Assay results from US20220125877A1, “METHOD FOR TREATING COLORECTAL CANCER” (SUN YAT-SEN UNIVERSITY, priority 2019, published 2022).

Tests used:
[1] = test system: KRAS wildtype CRC cells CaCO2; test: Cell viability (CCK-8 method); type: cell-based; settings: Homo sapiens, Caco-2; CCK8, FIG. 10
Description: (§1) The cells were inoculated on a plate according to the concentration of 5000 cells/well (48-well plate, 200 μl per well). The cells were treated with different ways according to the experimental requirements, and 10 μl CCK8 solution was added after a period of time. The cells were incubated for 1 h in an incubator; 200 μl supernatant were absorbed into a 96-well ELISA plate to determine OD450 with a microplate reader.
(§2) (2) Metformin with a gradient concentration was used in vitro to treat KRAS wildtype colorectal cancer cell lines SW48 and CaCO2, KRAS G13D-mutation colorectal cancer cell lines HCT-116 and LoVo, as well as KRAS G12V-mutation colorectal cancer cell lines SW480 and SW620. In addition, the metformin with a gradient concentration was used to treat the KRAS wildtype colorectal cancer cell line SW48 transfected with KRAS G12V, KRAS G13D and KRAS G12D plasmids.
(§3) 5 μM and 10 μM lansoprazole were used to treat HCT-116 and LoVo simultaneously; metformin was used to treat the cells at the same time for 48 h; the cell viability was detected by CCK8.

[2] = test system: KRAS wildtype CRC cells SW48; test: Cell viability (CCK-8 method); type: cell-based; settings: Homo sapiens, CCK8, FIG. 10
Description: as §1, §2, §3

[3] = test system: KRAS mutation CRC cells LoVo; test: Cell cycle, PI/RNase staining, flow cytometry; type: cell-based, human; settings: 24 h, FIG. 8C
Description: (§4) 1) The cells were inoculated onto a 6-well plate, and subjected to adherence growth for 12 h, then starvation treatment over the night, and treated with the addition of an agent for 24 h, then the cells were digested and washed for 3 times with PBS and centrifuged to discard supernatant; −20° C. pre-cooled 70% ethanol was added dropwise, and the cells were mixed well by vortex, and immobilized over the night at −20° C.
(§5) 2) The cells were horizontally centrifuged for 10 min at 2000 rpm to discard the supernatant; then the cells were washed with PBS for 2-3 times to remove the residual ethanol with centrifugation for 5 min each time.
(§6) 3) The cells were resuspended by 500 μL PI/RNase dyeing liquor, and incubated for 15 min in the dark, and put on a flow cytometry within 2 h for detection, and 488 nm wavelength was stimulated.
(§7) 4) FlowJo 7.6 software was used for graphing analysis.

[4] = test system: KRAS wildtype CRC cells SW48; test: Cell cycle, PI/RNase staining, flow cytometry; type: cell-based, human; settings: 24 h, FIG. 8C
Description: as §4, §5, §6, §7

[5] = test system: KRAS mutation CRC cells LoVo; test: Cell viability (CCK-8 method); type: cell-based, human
Description: as §1, §2, §3

[6] = test system: KRAS mutation CRC cells HCT-116; test: Cell viability (CCK-8 method); type: cell-based, human
Description: as §1, §2, §3

[7] = test system: KRAS^G13DSW48 graft with MATE1 over-expressed; test: Cell-derived xenograft (CDX), tumor growth; type: in vivo, BALB/c nude mice; settings: 200 mg/kg in water, 30 d, compared with the KRAS^G13DSW48 tumor, FIGS. 12G-L
Description: (§8) In the CDX, CRISPR/Cas9 was first utilized to build a KRAS^G13DSW48 cell line; MATE1 was knocked down by shRNA lentivirus transduction in SW48 to build a sh-MATE1-SW48 cell line; lentivirus was infected in KRAS^G13DSW48 cells to over-express MATE1. 1×10^6 cells were suspended in a basement membrane matrix (100 μl basement membrane matrix and 100 μl PBS) and subcutaneously injected into BALB/c nude mice. CDX mice were randomly distributed into a metformin treatment group and a control group. 200 mg/kg (equivalent to human 1000 mg) metformin was dissolved into water, and respectively taken by the 4 groups of animals; then the tumor size was measured; 30 d later, the tumor tissues were killed and weighed.

[8] = test system: SW48+sh-MATE1 CDX; test: Cell-derived xenograft (CDX), tumor growth; type: in vivo, BALB/c nude mice; settings: 200 mg/kg in water, 30 d, MATE1 knocked down, FIGS. 12G-L
Description: as §8

[9] = test system: KRAS wildtype colorectal cancer cells; test: Cell viability, metformin with a gradient concentration; type: cell-based, human; settings: FIG. 6
Description: as §1, §2

[10] = test system: LoVo cell line with knock-down KRAS protein; test: Cell viability in KRAS knock-down cells; type: cell-based, human; settings: relative to LoVo, FIG. 8D
Description: 2) LoVo cells were subcultured to a 6-well plate (about 1×10^5/well), when cells were subjected to adherence growth, and the degree of cell fusion was not greater than 50%, fresh culture solution was replaced ahead of 2 h, and 10 μg/mL lentivirus infection enhancer polybrene was added. Multiplicity of Infection (MOI) of LoVo was about 20; lentivirus was added according to the formula: adding amount of lentivirus per well (μl)=MOI×cell population/titer (TU/ml)×1000. The culture solution was replaced after 16-18 h, and 1 μM puromycin was conventionally added for screening the cell line whose RNA stable expression was interfered by KRAS.

[11] = Concentration of metformin in tumor tissues by mass spectrometry; type: in vivo; settings: KRAS mutation vs KRAS wildtype tumor tissues, FIG. 11F
Source text: The concentration of metformin in KRAS wildtype and mutation tumor tissues was detected by mass spectrometry.

[12] = test system: KRAS G13D, G12D and G12V mutation colorectal cancer cells; test: Cell viability, metformin with a gradient concentration; type: cell-based, human; settings: FIG. 6
[13] = test system: KRAS mutation CRC cells LoVo; test: Proliferation detection (Edu method); type: cell-based, human; settings: FIGS. 8A-B
Description: (§9) Edu was used to detect the ratio of proliferative cells, a plate clone formation experiment and PI/Rnase simple staining were used to detect the distribution of cell cycles, thus making the effect of metformin on the proliferation of CRC cells clear.
(§10) 1) Cell treatment by Edu: cells were cultured in a culture dish (covered with a sterilized cover glass), and subjected adherence growth for 12 h, and starvation treatment over the night, and treated with the addition of an agent for the corresponding time, and then added with EdU (final concentration: 10 μM) at the last 2-6 h (EdU treatment time was determined according to the cell growth rate).
(§11) 2) Immobilization: 4% paraformaldehyde was added according to 1 mL/well to immobilize the cells for 15 min at room temperature.
(§12) 3) Slide washing: 3% BSA (dissolved by PBS) was used according to 1 mL/well for washing for twice.
(§13) 4) Rupture of membrane: the cells were treated by 0.5% TritonX-100 according to 1 mL/well for 20 min at room temperature.
(§14) 5) Slide washing: the same as the step 3).
(§15) 6) Addition of a ClickiT reaction mixture: the reaction mixture was added per […] in the dark for 30 min at room temperature. […]
(§16) 11) The slide was observed under a full-automatic positive fluorescence microscope to analyze the result, and shoot and recorded (100×, 200×, 400×, the original image was kept).

[14] = test system: KRAS wildtype CRC cells SW48; test: Proliferation detection (Edu method); type: cell-based, human; settings: FIGS. 8A-B
Description: as §9, §10, §11, §12, §13, §14, §15, §16

[15] = with 5 μM and 10 μM lansoprazole, 48 h, FIGS. 11A-B

CN(C)C(=N)N=C(N)N [metformin]
IC50 [1]: 88.1 mM
IC50 [2]: 90.8 mM
ratio of phase S cells [3]: reduces
ratio of G1 cells ([3]; concentration dependent): dependently increases
cell cycle distribution (G1, phase S) [4]: no obvious effect
IC50 ([5]; Homo sapiens, LoVo, CCK8, FIG. 10): 8.18 mM
increase of IC50 of metformin after lansoprazole [5, 15]: 1.2-2.5 times
IC50 ([6]; Homo sapiens, HCT-116, CCK8, FIG. 10): 23.7 mM
increase of IC50 of metformin after lansoprazole [6, 15]: 1.2-2.5 times
anti-tumor effect (tumor growth) [7]: has no effect
tumor growth [8]: significantly inhibits the tumor growth
effect on cell viability [9]: has no effect
inhibiting effect on cell viability after interference of KRAS (G13D) expression [10]: down-regulate the inhibiting effect
concentration of metformin in tumor tissues [11]: higher than that in the KRAS wildtype tumor tissues
effect on cell viability [12]: has an inhibiting effect
ratio of proliferating-phase cells (EdU positive) [13]: decreases
ratio of proliferating-phase cells (EdU positive) [14]: no obvious effect
